Consider one compound from publication PMC6304418, “A Novel Compound Targeting Protease Receptor 1 Activators for the Treatment of Glioblastoma” (Frontiers in Neurology, 2018).

Series [1] deals with CNS-1 glioma cells. Kind of series: CNS-1 glioma cell proliferation (XTT). The conditions noted are these: SIXAC 1 μM, 72 h, FCS-free medium, p < 0.03. In kind it is cell-based, rat. The protocol: CNS-1, C6, and U87 rat and human glioma cells were grown in Dulbecco's modified Eagle's medium (DMEM; Bet Haemek, Biological Industries, Israel) supplemented with 10% fetal bovine serum (Bet Haemek, Biological Industries, Israel) and 1% penicillin and streptomycin in a 5% CO2-humidified atmosphere.
Cell proliferation was evaluated using a 2.3-Bis-(2-methoxy-4-nitro-5-sulfophenyl)-2H-tetrazolium-5-carboxyanilide salt (XTT)-based cell proliferation assay kit (Bet Haemek, Biological Industries, Israel). U87 cells were seeded in 96-well plates (5 × 10^3 cells/well) and incubated for 24 h. The medium was then removed, the tested molecules (10^−13-10^−4 M final concentration) were added in FCS-free medium and introduced to the cells for 72 h. After choosing SIXAC as the leading molecule, it was tested in a similar way in CNS-1 cells (SIXAC 1 μM final concentration). XTT solution (50 μl) was added to each well and incubated for 3 h at 37°C. The optical density (OD) of each well was recorded at 450 and 630 nm in a microplate reader (Infinite M200, Tecan, Durham, NC, USA). Cell viability was expressed as the percentage (ODtest–ODblank)/(ODcontrol–ODblank), where ODtest is the optical density of cells exposed to SIXAC treatment, ODcontrol is the optical density of the control sample, and ODblank is the optical density of wells without glioma cells.
(Tetrazolium assays rely on reduction of a dye to a coloured formazan, in cell work by metabolically active cells.)

Series [2] deals with glioma cells (CNS-1). The series can be described thus: Wound healing (wound-closure) assay. In kind it is cell-based, rat. The conditions noted are these: SIXAC 1 μM, 4 h, FCS-free medium; control 10.14 ± 0.67%; p = 0.02. As to the method:
The effect of SIXAC on the coordinated movement of the glioma cells was evaluated using a wound healing assay. The cells were seeded in 24-well plates at a density of 5 × 10^4cells/well. Cells were cultures in FCS-free medium for 24 h. A wound was established by scraping using 10 μl pipette tip. Cells were washed twice with warm PBS and fresh FCS-free medium containing 1 μM SIXAC was added. Image acquisition of wound gap closure (%) was carried out following 4 h of incubation using a Nikon Eclipse microscope. Images were analyzed using Fiji software ([37]).

Series [3] concerns human normal pooled citrated plasma. The series can be described thus: Coagulation in plasma (PT, aPTT, TT). The protocol:
HemosIL normal control (Instrumentation Laboratory), was used as human normal pooled citrated plasma from healthy donors. The lyophilized human plasma containing buffer, stabilizers and preservatives, was reconstituted using standard laboratory methods. The plasma was exposed in-vitro to indicated concentrations of SIXAC for 10 min. Next, prothrombin time (PT), activated partial thromboplastin time (aPTT) and thrombin time (TT) were measured. All tests were carried out with an ACLTOP® 500 autoanalyzerat in the Sheba medical center (Israel) MegaLab according to standard operating procedures (SOP). The results represent an average of 5 measures.

Series [4] is described as follows: SIXAC stability over time at 37°C, measured by its inhibition of thrombin. In kind it is physicochemical. The conditions noted are these: 400 μM SIXAC incubated and sampled, read-out inhibition of 0.05 U/ml thrombin. The protocol: Thrombin activity was assessed using a fluorogenic thrombin substrate (Bachem I-1560, excitation 360 nm; emission 465 nm). As previously described ([19], [36]), the reactions were carried out in a black 96-well microplate. All reactions were performed in Tris buffer (in mM: 150 NaCl, 1 CaCl2, 50 Tris-HCl: pH 8.0) and in the presence of endopeptidase inhibitors (0.1 mg/ml, bestatin hydrochloride—B8385, Sigma; 200 μM prolylendopeptidase inhibitor II, 537011, Merck Millipore) to eliminate the effect of widely abundant CNS endopeptidases on the assay. Known bovine thrombin concentrations (T-4648, Sigma) were used to create a calibration curve for each experiment. IC50 for inhibition of C6 glioma-generated thrombin activity by the molecules was measured in the medium secreted from the cells as described before ([19]). Briefly, C6 cells were seeded (5 × 10^4 cells/ml, 200 μl per well) and allowed to attach the well bottom for 24 h. […] The substrate was added and fluorescence was measured. […] Inhibition of commercial thrombin by SIXAC was measured by applying increasing concentrations of SIXAC (10^−12-10^−5M final concentration) to wells containing 0.05U/ml thrombin (final concentration). […] The sampled SIXAC was added to a constant concentration of thrombin (0.05 U/ml) and thrombin activity was measured. […] All other measures were calculated as a portion of the total activity.

The subject of series [5] is CNS-1 tumors in rat brains. Kind of series: Histopathology of CNS-1 GBM rat brains (H&E, Ki67). In kind it is in vivo. The protocol: Rats were allocated to three groups. 1. Control group (n = 15) treated with alzet-pumps contain saline. 2. Moderate dose treated group (n = 16) treated with alzet-pump containing SIXAC (2μg/kg/day). 3. High dose treated group (n = 14) treated with alzet-pumps contain SIXAC (20μg/kg/day). Survival was registered daily and the brains were dissected immediately after death determination and were placed in 4% PFA and kept at 4°C. Upon MRI scanning the brains were moved to PBS containing tubes, scanning was performed and ROI were quantified.
Formalin-fixed, paraffin-embedded brains were serially sectioned into 4 μm sections and stained with Hematoxylin and Eosin (H&E). Tumor localization and detailed evaluation was conducted by a senior neuropathologist (NS). Mitosis rate was assessed manually by 2 observers who analyzed 10 fields from each examined brain. Serial 4 μm sections were used for immune-histochemical staining using a commercially available monoclonal rabbit anti-Ki67 antibody (clone SP6,# RM-9106-S, Thermo Scientific, 1:300) according to standard procedures and fully automated protocol. A positive control was added on the right side of the slides for immune-histochemistry. The slides were automatically scanned via Aperio Versa 200 System (leica) using X20 and X40 equivalent objectives. Digital images were captured with Leica DM6000B microscope by AperioImageScope software. The Ki67 index was defined as positive stained nuclei (DAB positive)/all stained nuclei. Ten fields from each tested brain were used for analysis of Ki67 index. The indices were automatically calculated by means of ImmunoRatio application (Version 1.0c) ([43]).

Each structure is given as a SMILES string. Entries after “also recorded” stand apart in the source; their conditions may differ. Where a SMILES comes first, the peptide text is derived from it. The star is where a group is joined. Tos = Cc1ccc(S(=O)(=O)*)cc1; CH2Cl = ClC*

As for `Cc1ccc(S(=O)(=O)N[C@@H](C)C(=O)N[C@H](C(=O)N[C@@H](CC(C)C)C(=O)N[C@@H](CC(=O)O)C(=O)N2CCC[C@H]2C(=O)N[C@@H](CCCNC(=N)N)C(=O)CCl)[C@@H](C)O)cc1` [SIXAC] (Tos-ATLDPR-CH2Cl), in series [1], the “CNS-1 cell proliferation rate” value was “significantly decrease proliferation rate (p < 0.03); also recorded: significantly decrease the CNS-1 cell proliferation rate”. Besides, in series [2], the wound-closure percentage is on record as 7.27 ± 0.68%. The “margin of coagulation-affecting concentration over IC50 for thrombin inhibition” value in series [3] (10^−4M vs. IC50 for thrombin inhibition) was “at least 4.5 orders of magnitude”. Also, the “concentration at which coagulation tests (PT, aPTT, TT) are affected” value in series [3] (human plasma exposed 10 min, affected only at this concentration, average of 5 measures) is on record as 10^−4 M. Also, the “effect on PT, aPTT and TT (in words)” value in series [3] (human plasma exposed 10 min, concentrations equivalent to those used to treat animals, average of 5 measures) is “no clinical significant effects; also recorded: The effect was minimal for the therapeutic dosages used in the experiment”. For the same compound, the “stability: time for which SIXAC was stable and significantly inhibited thrombin” value in series [4] is ≥ 18 days. For the same compound, the “mitosis rate (number of mitosis/field, H&E)” value in series [5] (SIXAC treated rats, 10 fields per brain, mean ± SEM, control 7.75 ± 1.45, p = 0.03) is recorded as 4.9 ± 0.2 mitosis/field. Moreover, in series [5] (SIXAC treated rats, positive/all stained nuclei, ImmunoRatio, ten fields per brain, mean ± SEM, control 21.55 ± 0.11, p < 0.001), the Ki67 index worked out at 12.74 ± 0.23. For the same compound, the “H&E finding in a long survivor rat” value in series [5] (high dose 20μg/kg/day long survivor, sacrificed at day 40) is listed as “large cystic area containing residual tissue with foamy macrophages”.
